Measured values reported in patent publication US9850283B2, “Macrocyclic inhibitors of the PD-1/PD-L1 and CD80(B7-1)/PD-L1 protein/protein interactions” (BRISTOL-MYERS SQUIBB COMPANY, priority 2013, dated 2017).
Like-named read-outs stand apart in the source and are kept apart here. Positions of bridges follow the written chain, without caps; N, C: chain ends. Non-standard residues stand in square brackets, D forms with d. Residues, ends and D or L forms follow the SMILES beside them. ξ: configuration not given here. Phe(3,4,5-F3) = N[C@@H](Cc1cc(F)c(F)c(F)c1)C(=O)O; d(cisHyp) = O=C(O)[C@H]1C[C@@H](O)CN1; Bta = N[C@@H](Cc1csc2ccccc12)C(=O)O; Hyp = O=C(O)[C@@H]1C[C@@H](O)CN1; NMeF = CN[C@@H](Cc1ccccc1)C(=O)O; dNMeE = CN[C@H](CCC(=O)O)C(=O)O; dNMeNle = CCCC[C@@H](NC)C(=O)O; NMeNle = CCCC[C@H](NC)C(=O)O; NMeM = CN[C@@H](CCSC)C(=O)O; NMeS = CN[C@@H](CO)C(=O)O; NMeA = CN[C@@H](C)C(=O)O; dDap = NC[C@@H](N)C(=O)O; Dab = NCC[C@H](N)C(=O)O; Dap = NC[C@H](N)C(=O)O; ξP = O=C(O)C1CCCN1; ξC = NC(CS)C(=O)O; Sar = CNCC(=O)O

Columns and labels:
Human PD-L1/PD-1 = molecular target: T1, Human PD-L1/PD-1 (Homo sapiens, UniProt Q9NZQ7); assay: HTRF PD-1-Ig/PD-L1-His binding assay (human PD-L1); conditions: cluster symbol; read-out: HTRF IC50 cluster
T1 construct: made in house; host or cells: HEK293T
T1 sequence (Q9NZQ7 with tags, fused parts or gaps): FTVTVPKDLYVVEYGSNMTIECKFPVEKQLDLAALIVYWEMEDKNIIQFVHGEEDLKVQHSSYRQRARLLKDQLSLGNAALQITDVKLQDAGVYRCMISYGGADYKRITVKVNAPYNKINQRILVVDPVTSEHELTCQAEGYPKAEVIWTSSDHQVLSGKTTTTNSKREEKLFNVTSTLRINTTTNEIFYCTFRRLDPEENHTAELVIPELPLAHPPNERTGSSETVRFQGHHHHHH
Procedure, shortened: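 HTRF read-out: Eu cryptate anti-Ig mAb 1 nM final, APC anti-His mAb 20 nM final, added over the binding reaction. Proteins were PD-1-Ig and PD-L1-His ectodomain fusions. Buffer was dPBS, 0.1% BSA, 0.05% Tween-20.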

[1] = molecular target: T2, LK35.2-hPD-L1 cells / PE-labeled PD-1-Ig (Homo sapiens, UniProt Q9NZQ7); assay: LK35.2-hPD-L1 cell binding high-content screening assay; type: cell-based; conditions: cluster symbol, read-out: CBA IC50 cluster
T2 construct: expressed in transfected cells; host or cells: LK35.2 mouse B cell line
T2 sequence (Q9NZQ7 19-290): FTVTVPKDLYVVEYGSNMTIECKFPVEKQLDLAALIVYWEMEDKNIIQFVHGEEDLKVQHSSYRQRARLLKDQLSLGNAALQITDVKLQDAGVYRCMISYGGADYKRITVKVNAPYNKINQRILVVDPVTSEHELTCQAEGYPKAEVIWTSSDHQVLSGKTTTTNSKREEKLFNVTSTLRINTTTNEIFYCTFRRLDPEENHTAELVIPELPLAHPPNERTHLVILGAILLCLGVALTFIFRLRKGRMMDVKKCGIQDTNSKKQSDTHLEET
Procedure, shortened: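 Compound effect on PD-1/PD-L1 binding is measured by imaging cell-associated phycoerythrin signal. Human PD-1-Ig (PE on Ig tag, 1 nM final) is applied with compound to a murine B cell line overexpressing human PD-L1 for 1 h at 37 °C in serum-containing RPMI.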

[2] = cell line of CBA not given (LK35.2-hPD-L1 or 293T-hPD-L1)
[3] = cell binding assay, cell line not given

Row | Structure (SMILES) | IC50 (Human PD-L1/PD-1) | IC50 [1, 2] | IC50 [1, 3]
1 | CCCC[C@@H]1C(=O)N(C)[C@H](CCCC)C(=O)N[C@@H](C)C(=O)N[C@@H](C(=O)NCC(N)=O)CSCC(=O)N[C@@H](Cc2ccc(O)cc2)C(=O)N2CCCC2C(=O)N[C@H](CC(N)=O)C(=O)N2CCC[C@H]2C(=O)N[C@H](CN)C(=O)N[C@@H](CCC(N)=O)C(=O)N2CCCC2C(=O)N[C@H](Cc2c[nH]c3ccccc23)C(=O)N[C@@H](CCN)C(=O)N[C@@H](Cc2c[nH]c3ccccc23)C(=O)N1C (stereo partly shown) [Example 1211] ({CH2CO}-Y[ξP][dN]P[dDap]Q[ξP][dW][Dab]W[dNMeNle][dNMeNle]A[dC]G-NH2; thioether N-14) | 6.76 to 30.3 nM | > 74.3 nM | –
2 | CCCC[C@H]1C(=O)N(C)[C@@H](CCCC)C(=O)N[C@@H](CCCNC(=N)N)C(=O)N[C@H](C(=O)NCC(N)=O)CSCC(=O)N[C@@H](Cc2ccc(O)cc2)C(=O)N(C)[C@@H](C)C(=O)N[C@@H](CC(N)=O)C(=O)N2CCC[C@H]2C(=O)N[C@@H](Cc2cnc[nH]2)C(=O)N[C@@H](CCC(=O)O)C(=O)N2CCC[C@H]2C(=O)N[C@@H](Cc2c[nH]c3ccccc23)C(=O)N[C@@H](CO)C(=O)N[C@@H](Cc2c[nH]c3ccccc23)C(=O)N1C [Example 1090] ({CH2CO}-Y[NMeA]NPHEPWSW[NMeNle][NMeNle]RCG-NH2; thioether N-14) | 0.385 to 6.74 nM | 0.158 to 4.71 nM | –
3 | CCCC[C@H]1C(=O)N(C)[C@@H](CCCC)C(=O)N[C@@H](CCCNC(=N)N)C(=O)N[C@H](C(=O)NCC(N)=O)CSCC(=O)N[C@@H](Cc2ccccc2)C(=O)N(C)[C@@H](C)C(=O)N[C@@H](CC(N)=O)C(=O)N2CCC[C@H]2C(=O)N[C@@H](Cc2cnc[nH]2)C(=O)N[C@@H](Cc2cnc[nH]2)C(=O)N(C)CC(=O)N[C@@H](Cc2c[nH]c3ccccc23)C(=O)N[C@@H](CO)C(=O)N[C@@H](Cc2c[nH]c3ccccc23)C(=O)N1C [Example 6008] ({CH2CO}-F[NMeA]NPHH[Sar]WSW[NMeNle][NMeNle]RCG-NH2; thioether N-14) | > 30.5 nM | – | > 74.3 nM
4 | CCCC[C@H]1C(=O)N(C)CC(=O)N[C@@H](CC(=O)O)C(=O)N[C@@H](CCC)C(=O)N(C)[C@@H](Cc2ccccc2)C(=O)N[C@@H](Cc2ccc(O)cc2)C(=O)N(C)CC(=O)N[C@@H](Cc2c[nH]c3ccccc23)C(=O)N[C@@H](Cc2ccc(O)cc2)C(=O)N[C@@H](CC(C)C)C(=O)N[C@H](C(=O)NCC(N)=O)CSCC(=O)N[C@@H](Cc2ccccc2)C(=O)N(C)[C@@H](Cc2ccccc2)C(=O)N1C [Example 3525] (HELM PEPTIDE1{[O=C(C[*:3])[*:2]].F.[meF].[CCCC[C@@H](C(=O)[*:2])N(C)[*:1]].[Sar].D.[Nva].[meF].Y.[Sar].W.Y.L.C.G.[am]}$PEPTIDE1,PEPTIDE1,1:R3-14:R3$$$V2.0) | > 30.5 nM | – | > 74.3 nM
5 | CCCC[C@H]1C(=O)N(C)[C@@H](CCCC)C(=O)N[C@@H](CCCNC(=N)N)C(=O)N[C@H](C(=O)NCC(N)=O)CSCC(=O)N[C@@H](Cc2ccc(O)cc2)C(=O)N(C)[C@@H](C)C(=O)N[C@@H](CC(N)=O)C(=O)N2CCC[C@H]2C(=O)N[C@@H](Cc2cnc[nH]2)C(=O)N[C@@H](CCC(=O)O)C(=O)N2C[C@H](O)C[C@H]2C(=O)N[C@@H](Cc2csc3ccccc23)C(=O)N[C@@H](CCN)C(=O)N[C@@H](Cc2c[nH]c3ccccc23)C(=O)N1C [Example 5052] ({CH2CO}-Y[NMeA]NPHE[Hyp][Bta][Dab]W[NMeNle][NMeNle]RCG-NH2; thioether N-14) | > 30.5 nM | – | > 74.3 nM
6 | CCCC[C@H]1C(=O)N(C)[C@@H](CCCC)C(=O)N[C@@H](CCCNC(=N)N)C(=O)N[C@H](C(=O)NCC(N)=O)CSCC(=O)N[C@@H](Cc2ccc(O)cc2)C(=O)N(C)[C@@H](C)C(=O)N[C@@H](CN)C(=O)N2CCC[C@H]2C(=O)N[C@@H](Cc2c[nH]cn2)C(=O)N[C@@H](CC(=O)O)C(=O)N2C[C@H](O)C[C@H]2C(=O)N[C@@H](Cc2c[nH]c3ccccc23)C(=O)N[C@@H](CO)C(=O)N[C@@H](Cc2c[nH]c3ccccc23)C(=O)N1C [Example 5134] ({CH2CO}-Y[NMeA][Dap]PHD[Hyp]WSW[NMeNle][NMeNle]RCG-NH2; thioether N-14) | 0.385 to 6.74 nM | – | 4.78 to 72.9 nM
7 | CCCC[C@H]1C(=O)N[C@@H](CN)C(=O)N[C@H](C(=O)NCC(N)=O)CSCC(=O)N[C@@H](Cc2ccc(O)cc2)C(=O)N(C)[C@@H](C)C(=O)N[C@@H](CC(N)=O)C(=O)N2CCC[C@H]2C(=O)N[C@@H](Cc2c[nH]cn2)C(=O)N[C@@H](CCC(=O)O)C(=O)N2C[C@H](O)C[C@H]2C(=O)N[C@@H](Cc2c[nH]c3ccccc23)C(=O)N[C@@H](CCN)C(=O)N[C@@H](Cc2c[nH]c3ccccc23)C(=O)N(C)[C@@H](Cc2ccccc2)C(=O)N1C [Example 5144] ({CH2CO}-Y[NMeA]NPHE[Hyp]W[Dab]W[NMeF][NMeNle][Dap]CG-NH2; thioether N-14) | 0.385 to 6.74 nM | – | 0.158 to 4.71 nM
8 | CCCC[C@H]1C(=O)N(C)[C@@H](CCCC)C(=O)N[C@@H](CCCNC(=N)N)C(=O)N[C@H](C(=O)NCC(N)=O)CSCC(=O)N[C@@H](Cc2ccccc2)C(=O)N(C)[C@@H](C)C(=O)N[C@@H](CC(N)=O)C(=O)N2CCC[C@H]2C(=O)N[C@@H](Cc2cnc[nH]2)C(=O)N[C@@H](CC(C)C)C(=O)N(C)CC(=O)N[C@@H](Cc2c[nH]c3ccccc23)C(=O)N(C)[C@@H](CO)C(=O)N[C@@H](Cc2c[nH]c3ccccc23)C(=O)N1C [Example 1078] ({CH2CO}-F[NMeA]NPHL[Sar]W[NMeS]W[NMeNle][NMeNle]RCG-NH2; thioether N-14) | > 30.5 nM | > 74.3 nM | –
9 | CCCC[C@H]1C(=O)N(C)[C@@H](CCSC)C(=O)N[C@@H](CCCNC(=N)N)C(=O)NC(C(=O)NCC(N)=O)CSCC(=O)N[C@@H](Cc2ccc(O)cc2)C(=O)N(C)[C@@H](C)C(=O)N[C@@H](CC(N)=O)C(=O)N2CCC[C@H]2C(=O)N[C@@H](Cc2cnc[nH]2)C(=O)N[C@@H](CO)C(=O)N2CCC[C@H]2C(=O)N[C@@H](Cc2c[nH]c3ccccc23)C(=O)N[C@@H](CO)C(=O)N[C@@H](Cc2csc3ccccc23)C(=O)N1C (stereo partly shown) [Example 9106] ({CH2CO}-Y[NMeA]NPHSPWS[Bta][NMeNle][NMeM]R[ξC]G-NH2; thioether N-14) | 0.385 to 6.74 nM | – | 4.78 to 72.9 nM
10 | CCCC[C@H]1C(=O)N2C[C@H](O)C[C@@H]2C(=O)N[C@@H](CC(N)=O)C(=O)N[C@@H](C(C)C)C(=O)N(C)[C@@H](Cc2ccccc2)C(=O)N[C@@H](Cc2ccc(O)cc2)C(=O)N(C)[C@H](CCC(=O)O)C(=O)N[C@@H](Cc2c[nH]c3ccccc23)C(=O)N[C@@H](Cc2ccc(O)cc2)C(=O)N[C@@H](CCCCN)C(=O)N[C@H](C(=O)NCC(N)=O)CSCC(=O)N[C@@H](Cc2cc(F)c(F)c(F)c2)C(=O)N(C)[C@@H](Cc2ccccc2)C(=O)N1C [Example 3596] ({CH2CO}-[Phe(3,4,5-F3)][NMeF][NMeNle][d(cisHyp)]NV[NMeF]Y[dNMeE]WYKCG-NH2; thioether N-13) | 6.76 to 30.3 nM | – | 0.158 to 4.71 nM
11 | CCCC[C@H]1C(=O)N(C)[C@@H](CCCC)C(=O)N[C@@H](CCCNC(=N)N)C(=O)NC(C(=O)N[C@@H](CO)C(N)=O)CSCC(=O)N[C@@H](Cc2ccc(O)cc2)C(=O)N(C)[C@@H](C)C(=O)N[C@@H](CC(N)=O)C(=O)N2CCC[C@H]2C(=O)N[C@@H](Cc2cnc[nH]2)C(=O)N[C@@H](CO)C(=O)N2CCC[C@H]2C(=O)N[C@@H](Cc2c[nH]c3ccccc23)C(=O)N[C@@H](CO)C(=O)N[C@@H](Cc2c[nH]c3ccccc23)C(=O)N1C (stereo partly shown) [Example 9077] ({CH2CO}-Y[NMeA]NPHSPWSW[NMeNle][NMeNle]R[ξC]S-NH2; thioether N-14) | 6.76 to 30.3 nM | – | 4.78 to 72.9 nM
12 | CCCC[C@H]1C(=O)N(C)[C@@H](CCCC)C(=O)N[C@@H](C)C(=O)N[C@H](C(=O)NCC(N)=O)CSCC(=O)N[C@@H](Cc2ccc(O)cc2)C(=O)N(C)[C@@H](C)C(=O)N[C@@H](CC(N)=O)C(=O)N2CCC[C@H]2C(=O)N[C@@H](Cc2cnc[nH]2)C(=O)N[C@@H](CC(C)C)C(=O)N2C[C@H](O)C[C@H]2C(=O)N[C@@H](Cc2c[nH]c3ccccc23)C(=O)N[C@@H](CCN)C(=O)N[C@@H](Cc2c[nH]c3ccccc23)C(=O)N1C [Example 5035] | 0.385 to 6.74 nM | – | 0.158 to 4.71 nM
13 | CC(C)C[C@@H]1NC(=O)[C@H](Cc2ccc(O)cc2)NC(=O)[C@H](Cc2c[nH]c3ccccc23)NC(=O)CN(C)C(=O)[C@H](Cc2ccc(O)cc2)NC(=O)[C@H](Cc2ccccc2)N(C)C(=O)[C@H](C(C)C)NC(=O)[C@H](CC(=O)O)NC(=O)CN(C)C(=O)[C@H](CCC(=O)O)N(C)C(=O)[C@H](Cc2ccccc2)N(C)C(=O)[C@H](Cc2ccccc2)NC(=O)CSC[C@@H](C(=O)NCC(N)=O)NC1=O [Example 3061] (HELM PEPTIDE1{[O=C(C[*:3])[*:2]].F.[meF].[meE].[Sar].D.V.[meF].Y.[Sar].W.Y.L.C.G.[am]}$PEPTIDE1,PEPTIDE1,1:R3-14:R3$$$V2.0) | 6.76 to 30.3 nM | > 74.3 nM | –
14 | CCCC[C@H]1C(=O)N(C)[C@@H](CCCC)C(=O)N[C@@H](C)C(=O)N[C@H](C(N)=O)CSCC(=O)N[C@@H](Cc2ccc(O)cc2)C(=O)N(C)[C@@H](C)C(=O)N[C@@H](CCC(=O)O)C(=O)N2CCC[C@H]2C(=O)N[C@@H](CN)C(=O)N[C@@H](CC(C)C)C(=O)N2C[C@H](O)C[C@H]2C(=O)N[C@@H](Cc2c[nH]c3ccccc23)C(=O)N[C@@H](CO)C(=O)N[C@@H](Cc2c[nH]c3ccccc23)C(=O)N1C [Example 1172] ({CH2CO}-Y[NMeA]EP[Dap]L[Hyp]WSW[NMeNle][NMeNle]AC-NH2; thioether N-14) | 0.385 to 6.74 nM | 4.78 to 72.9 nM | –
